In brackets after ≈: the same amount, converted by molar mass. Like-named read-outs stand apart in the source and are kept apart here.
What was measured:
[1] = target: T1, human NCX 1.1 (Homo sapiens, UniProt P32418); test: Fluorescence screening assay for hNCX 1.1 inhibition (reverse mode, Sf9 cells); type: cell-based; settings: for IC50: Sf9 cells expressing human NCX1.1, reverse mode, fluorescence, n=3 assays
T1 construct: expressed in transfected cells
Method: Spodoptera frugiperda (Sf9; RRID:CVCL_0549) cells are widely used for the transient and stable expression of recombinant proteins. Here, Sf9 cells were stably transfected with human NCX 1.1 and maintained in spinner flasks with insect cell culture medium (TNM‐FH), supplemented with 10% FBS, antibiotic–antimycotic solution, and 50 μg·ml^−1 of blasticidin at 28°C in a non‐humidified, CO2‐free atmosphere. The Sf9 cell suspension was subcultured three times a week.
NCX reverse mode activity was stimulated via a 50% dilution of the extracellular Na^+ level using the internal pipettor of FLEXstation, a fluorescence imaging plate reader (Molecular Devices, USA), while simultaneously monitoring intracellular calcium levels. After dilution, the concentration of other ions remained the same, but Na^+ concentration was diluted to the half of original concentration of 172 to 86 mM. For Sf9 insect cells, normal extracellular Na^+ ion concentration is 172 mM. Typically, 50 μl of a solution containing 150,000–200,000 Sf9–NCX cells was loaded onto each well of a 96‐well plate. Cells were preincubated with the intracellular calcium dye Fluo‐4 and Fluo‐6, and the concentrations of the test compound (three replicates) were determined for about 1 h at room temperature before experimentation. The extracellular solution contained (in mM) 172 NaCl, 10 HEPES, 1 CaCl2, 1.2 MgCl2, 0.33 NaH2PO4, 5 glucose, and 5 probenecid. The pH was adjusted to 7.4 with NaOH. The extracellular Na^+ was diluted by the addition of a Na^+‐free extracellular solution (containing in mM: 147 N‐methyl‐D‐glucamine (NMDG), 10 HEPES, 1 CaCl2, 1.2 MgCl2, 0.33 NaH2PO4, and 5 glucose with the pH adjusted by HCl to 7.4)‐induced robust and reproducible elevation of intracellular calcium. The osmolarity of both solutions was adjusted to 340–355 mOsm in order to match the Sf9 cell media osmolarity. In each plate, the IC50 determination for each test compound was based on relative fluorescence changes in comparison with control and 5‐mM nickel acetate‐induced NCX inhibition.

[2] = Solubility; type: physicochemical; settings: pH 7.4 phosphate buffer; for solubility: phosphate buffer, pH 7.4, aqueous buffer
[3] = target: hERG (Homo sapiens, UniProt Q12809); test: hERG IC50 of Table 1 / Table S2 (method not assigned); type: cell-based; settings: n=4 assays
hERG, sequence (Q12809 whole entry): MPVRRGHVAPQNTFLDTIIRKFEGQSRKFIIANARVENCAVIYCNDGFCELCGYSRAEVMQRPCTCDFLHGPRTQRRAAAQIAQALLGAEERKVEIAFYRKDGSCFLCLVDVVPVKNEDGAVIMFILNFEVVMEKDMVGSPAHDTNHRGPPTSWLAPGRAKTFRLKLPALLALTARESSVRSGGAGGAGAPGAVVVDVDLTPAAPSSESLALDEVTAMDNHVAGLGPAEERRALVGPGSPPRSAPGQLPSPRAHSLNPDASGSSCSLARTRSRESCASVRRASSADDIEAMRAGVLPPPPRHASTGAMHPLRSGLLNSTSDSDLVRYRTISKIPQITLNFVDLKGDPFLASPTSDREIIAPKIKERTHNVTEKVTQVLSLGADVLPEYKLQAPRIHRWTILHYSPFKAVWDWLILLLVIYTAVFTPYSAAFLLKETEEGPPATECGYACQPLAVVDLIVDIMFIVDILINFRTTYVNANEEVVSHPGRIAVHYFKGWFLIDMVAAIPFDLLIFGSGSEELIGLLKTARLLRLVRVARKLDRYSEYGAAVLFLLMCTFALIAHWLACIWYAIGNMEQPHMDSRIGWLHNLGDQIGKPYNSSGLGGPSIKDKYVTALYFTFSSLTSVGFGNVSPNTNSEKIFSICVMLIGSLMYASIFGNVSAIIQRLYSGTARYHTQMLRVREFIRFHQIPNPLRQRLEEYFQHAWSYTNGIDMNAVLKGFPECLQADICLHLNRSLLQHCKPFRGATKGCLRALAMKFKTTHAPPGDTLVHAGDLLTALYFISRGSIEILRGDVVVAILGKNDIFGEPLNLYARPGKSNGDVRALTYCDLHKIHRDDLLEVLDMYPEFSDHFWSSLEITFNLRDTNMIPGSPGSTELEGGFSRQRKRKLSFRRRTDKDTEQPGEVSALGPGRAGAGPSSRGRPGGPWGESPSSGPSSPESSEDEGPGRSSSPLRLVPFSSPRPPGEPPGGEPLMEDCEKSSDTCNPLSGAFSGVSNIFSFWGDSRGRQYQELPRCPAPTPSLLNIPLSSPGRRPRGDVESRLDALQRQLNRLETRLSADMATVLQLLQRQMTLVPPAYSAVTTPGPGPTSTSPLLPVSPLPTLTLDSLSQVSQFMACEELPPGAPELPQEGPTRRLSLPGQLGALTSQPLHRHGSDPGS

[4] = tested on: L‐type calcium channel; test: L‐type calcium channel inhibition, fluorescence assay in IMR‐32 cells; type: cell-based, human; settings: KCl depolarization, n=4 assays, read-out: L‐type Ca^2+ IC50
Method: CHO cells stably expressing either hERG1a (KV11.1) channels (KCNH2; RRID:CVCL_H512) or human 5‐HT2B receptors were cultured at 37°C in a 5% CO2/95% air atmosphere in the Ham's Nutrient Mixture F‐12 (HAM F‐12) medium supplemented with 10% FBS (heat inactivated), 100 μg·ml^−1 of hygromycin B (Invitrogen), and 100 μg·ml^−1 of geneticin or 100 IU·ml^−1 of penicillin and 100 IU·ml^−1 of streptomycin, 25‐mM HEPES, 500 μg·ml^−1 of geneticin, and 250 μg·ml^−1 of Zeocin®. Adhered cells were detached using either Detachin® solution or trypsin and replated twice a week. HEK 293 (RRID:CVCL_0045) and IMR‐32 cells (CCL‐127; RRID:CVCL_0346) were cultured similarly but maintained instead in DMEM, supplemented with 10% FBS (heat inactivated), 100 IU·ml^−1 of penicillin and 100 IU·ml^−1 of streptomycin, and 25‐mM HEPES, and in the case of the IMR‐32 cell line, with minimum essential medium (MEM) non‐essential amino acids. IMR‐32 cells are derived from a human neuroblastoma and endogenously express L‐type (CaV1.x) calcium channel (Sher, Gotti, Pandiella, Madeddu, & Clementi, 1988).
Undifferentiated IMR‐32 cells were harvested, centrifuged, and resuspended in a probenecid‐Ringer solution consisting (in mM) 150 NaCl, 3 KCl, 1.2 MgCl2, 1 CaCl2, 20 HEPES, 5 glucose and 2.5 probenecid (pH 7.4 adjusted with NaOH, osmolarity 320–324 mOsm). We added 0.04% Pluronic F‐127 and Fluo‐4 to this solution, and after incubating the cells for 30 min at room temperature, these additives were removed from the probenecid‐Ringer solution by centrifugation and resuspension. The cell suspension was pipetted (250,000 cells in 75 μl per well) into a 96‐well plate, into which the test compound (75 μl per well at […] the final concentration; five concentrations with eight replicates) had already been added. The plate was centrifuged once (5 min, at 287 x g) to ensure that the cells were moved to the bottom of the wells. FLEXstation was then used to measure the increase in intracellular calcium at 37°C, following depolarization, which was induced by the addition (50 μl per well) of a KCl‐Ringer solution containing (in mM) 200 KCl, 20 CaCl2, 1.2 MgCl2, 20 HEPES and 2.5 probenecid respectively (pH adjusted to 7.4 with KOH, with an osmolarity of 320–324 mOsm).

[5] = tested on: human ventricular trabeculae; settings: 1 or 2 Hz; ORM‐11372 any tested concentration; dofetilide 0.1 μM (positive control)
[6] = tested on: healthy rats; test: In vivo haemodynamics in healthy rats (supplement); set-up: species or system rat
Description: In vivo haemodynamics in healthy rats
Experimental Animals and General Study Protocol
Rat was selected to the study as it is the most widely used rodent species in the toxicology studies performed for the small molecules during the drug development. […]
All animal experiments were made according to European Community Guidelines for the use of experimental animals and approved by Finnish National Animal Experiment Board. All studies complied with the ARRIVE guidelines, (NC3Rs Reporting Guidelines Working Group, 2010).
Specific pathogen free animals were housed in half -barrier rooms where special protecting clothing for personnel was required. Animal rooms were cleaned regularly 3 times per week and cages and bottles were […]
changed regular intervals once a week. Temperature was maintained at 22 ± 2°C and humidity at 55 ± 15%.
Light-dark cycle was lights on from 06.00 to 20.00h.
Male Sprague-Dawley rats (Harlan, Netherlands B.V.) were housed in polycarbonate cages (Makrolon® IV with stainless steel wire mesh lids). Maximally 5 rats were housed per cage with aspen chip bedding (Tapvei Ky, Kaavi, Finland). Rats had free access to water (twice filtered, Espoon Vesi) and rodent diet (SDS RM1
(P) SQC pelleted diet, Special Diet Services Ltd, Witham, England). Acclimation period before experiments was at least 5 days. Healthy 10-12 weeks aged weighing 300-400 g rats were randomized to ORM-11372, dobutamine or vehicle group.
At the end of the haemodynamic experiments, rats were terminated with an overdose of pentobarbital.
Anesthesia and ventilation
Rats were anaesthetised with isoflurane (2.25-2.5 %, Baxter) in carbogen (95 % O2 and 5 % CO2) and nitrous oxide (1:1) using a small rodent ventilator (Ugo Basile 7025, ~10 ml/kg, 60 strokes/min). The rats were infused with 0.9 % NaCl in […] at the stabilization and baseline level. Animals were placed on a heating table (+38°C). Tracheas were cannulated.
Systemic blood (SP) and left ventricular pressures (LVP) were measured with pressure transducers (BP:
Isotec, Hugo Sachs Elektronic, Germany; LVP: Mikro-Tip transducer SPR-249, Millar Instruments, USA). The signal was amplified (DC-bridge amplifier type 660, Hugo Sachs Elektronik, Germany), digitised (I/O connector block type SCB-68, National Instruments, USA), recorded and analysed (IHME 1.0.9, Fision Ltd, Finland). Left ventricular inotropic effect (LV +dP/dtmax) and relaxation (LV -dP/dtmin) and heart rate (HR) were analysed from LVP signal.
Blood sampling for the evaluation of plasma levels of the drug
At the end of each infusion, the blood samples (300-500 µl) were taken into chilled EDTA polypropylene tube (CapiJect®, Terumo) and centrifuged (4000 rpm, 10 min, at 4°C). Plasma was immediately frozen in polypropylene tubes and stored at –20°C. ORM-11372 and dobutamine were extracted from plasma samples using a liquid–liquid extraction and analysed using liquid chromatography–tandem mass spectrometry (Agilent Technologies series 1100 liquid chromatographic system and a Sciex LC-MS/MS API 4000 mass spectrometry). The lower limit of quantification for total plasma concentrations were 32.0 and 5.00 ng/ml from total for ORM-11372 and dobutamine, respectively. […]
The effects of dobutamine on blood pressure varies partially due to the use of racemate as active ingredient in the pharmaceutical formulation. (-)-dobutamine is α1-agonist and therefore causes increases in cardiac output and peripheral resistance. (+)-dobutamine acts via β1- and β2-adrenoceptors which leads to increase in heart rate and reduction in blood pressure 16.
Figure S20 Haemodynamics in healthy rats
Effects of ORM-11372 and dobutamine on haemodynamics in isoflurane anesthetized 10-12 weeks aged male Sprague-Dawley rats (Harlan, Netherlands B.V.) weighing 300-400 g. Shown are mean ± SEM and individual effects on the left ventricular contractility (LV+dP/dtmax, panel A), relaxation (LV-dP/dtmax, panel B), heart rate (panel C), and systolic arterial blood pressure (SAP, paned D). […]

[7] = target: hNCX1 (Homo sapiens, UniProt P32418); test: Confirmatory fluorescence assay for hNCX1 inhibition (forward mode, HEK293 cells, Charles River); type: cell-based; settings: HEK293, forward mode, Table S2; read-out: hNCX1-HEK IC50
Method: A confirmatory hNCX1 inhibition assay was performed in Charles River Laboratories, Cleveland. Briefly, HEK293 cells stably expressing hNCX1 were plated in 384‐well black wall, clear‐bottom microtitre plates and the next day loaded with Fluo‐8 for 30 min at 37°C. A plate was inserted into a FLIPR^TETRA, and a baseline was recorded during a preincubation period where test compound or vehicle in a Na^+‐free HB‐PS containing thapsigargin (6 μM) and […] (30 μM) was added to each well for ~5 min. Next, the NCX1 stimulation period was recorded in which Na^+‐containing HB‐PS (with 2‐μM thapsigargin and 10‐μM FCCP) was added. The experiments were performed at room temperature. The kinetic data generated were reduced for each well to maximum relative fluorescence units (RFU) minus minimum RFU after subtracting bias based on the first sample. The mean of the max–min RFU values during the stimulation period for the 3–4 replicates at each concentration on a plate was then plotted versus concentration and fitted to a Hill equation.

[8] = tested on: NCX; set-up: method as in Jost et al., 2013; Kohajda et al., 2016; settings: Dog, reference not given, ref Jost et al., 2013, Kohajda et al., 2016, cited from earlier work

Compound	IC50 [1]	solubility ([2]; read-out: Solubility class)	IC50 [3]	also measured
Fc1ccc(NCc2ccc(-c3cccc(Cl)c3)o2)cc1Cl [ORM‐11217]	210 nM	10 to 100 µg/mL (≈ 29.7 to 297 µM)	14600 nM	
O=[N+]([O-])c1cccc(-c2ccc(CNc3ccc(F)c(Cl)c3)o2)c1 [ORM‐11023]	156 nM			
Fc1ccc(NCc2ccc(-c3ccccc3Cl)o2)cc1Cl [ORM‐11165]	4 nM	< 10 µg/mL	9000 nM	IC50 [4]: 2000 nM
CN(CCOc1ccc(NS(C)(=O)=O)cc1)CCc1ccc(NS(C)(=O)=O)cc1 [dofetilide, reference compound]				STV and triangulation (pro‐arrhythmia markers) [5]: increased
CC(CCc1ccc(O)cc1)NCCc1ccc(O)c(O)c1 (centres unmarked) [dobutamine, reference compound]				absolute maximum positive inotropic effect [6]: 59%; free plasma concentration achieving 25% positive inotropic effect [6]: 25 ± 1.6 nM; free plasma concentration at absolute maximum positive inotropic effect [6]: 199 ± 17 nM; free plasma concentration at the 10±2% (ORM-11372) / 16±3% (dobutamine) inotropic effect [6]: 16 ± 0.8 nM; positive inotropic effect ([6]; at free plasma concentration 4±0.3 nM (ORM-11372), 16±0.8 nM (dobutamine)): 16±3%; increase in heart rate ([6]; free plasma concentration 96 nM): 15±5%; increase in heart rate ([6]; free plasma concentration 848 nM): 25±7%; relaxation ([6]; free plasma concentrations 16 to 199 nM): no effects
Fc1ccc(NCc2ccc(-c3ccc(Cl)cc3)o2)cc1Cl [ORM‐11190]	204 nM			
O=[N+]([O-])c1ccccc1-c1ccc(CNc2ccccc2)o1 [ORM‐11024]	875 nM			
O=[N+]([O-])c1ccc(Oc2ccc3c(c2)CCC(c2ccccc2)O3)nc1 (centres unmarked) [ORM-10103]	176 nM			IC50 [7]: 1850 nM; Solubility class [2]: Insoluble (insoluble less than 10 µg/ml); IC50 ([8]; read-out: IC50 NCX forward): 960 nM; IC50 ([8]; read-out: IC50 NCX reverse): 780 nM

The next lines start with results.

IC50 [1]	solubility ([2]; read-out: Solubility class)	Compound	IC50 [3]	also measured
90 nM	10 to 100 µg/mL (≈ 34.9 to 349 µM)	Fc1ccc(NCc2ccc(-c3cccnc3)o2)cc1F [ORM‐11875]		
231 nM	< 10 µg/mL	O=[N+]([O-])c1ccccc1-c1ccc(CNc2ccc(F)c(Cl)c2)o1 [ORM‐120407, 3-chloro-4-fluoro-N-((5-(2-nitrophenyl)furan-2-yl)methyl)aniline]	2100 nM	inhibition at 10 µM ([1]; 10 μM, fluorescence‐based assay, read-out: NCX1.1 inhibition): 87%; solubility ([2]; read-out: Solubility): < 10 µg/mL; IC50 [4]: 3100 nM
3 nM	< 10 µg/mL	Fc1ccc(NCc2ccc(-c3ccccn3)o2)cc1F [ORM‐11817]	2400 nM	IC50 [4]: 10400 nM
31 nM	10 to 100 µg/mL (≈ 33 to 330 µM)	Fc1ccc(NCc2coc(-c3ccccc3)n2)cc1Cl [ORM‐11298]	> 10000 nM	
2.5 nM	< 10 µg/mL	Fc1ccc(NCc2csc(-c3ccccc3Cl)n2)cc1F [ORM‐11863]		
